Laboratory results as given in PMC10797628.
Where two headings read alike, the source gives them in different places.

Legend:
human 5-HT1A receptor [1] = molecular target: T1, human 5-HT1A receptor (Homo sapiens, UniProt P08908); assay: Radioligand binding (saturation and competition), WT 5-HT1A
T1 construct: host or cells: HEK293T
T1 sequence (P08908 1-422): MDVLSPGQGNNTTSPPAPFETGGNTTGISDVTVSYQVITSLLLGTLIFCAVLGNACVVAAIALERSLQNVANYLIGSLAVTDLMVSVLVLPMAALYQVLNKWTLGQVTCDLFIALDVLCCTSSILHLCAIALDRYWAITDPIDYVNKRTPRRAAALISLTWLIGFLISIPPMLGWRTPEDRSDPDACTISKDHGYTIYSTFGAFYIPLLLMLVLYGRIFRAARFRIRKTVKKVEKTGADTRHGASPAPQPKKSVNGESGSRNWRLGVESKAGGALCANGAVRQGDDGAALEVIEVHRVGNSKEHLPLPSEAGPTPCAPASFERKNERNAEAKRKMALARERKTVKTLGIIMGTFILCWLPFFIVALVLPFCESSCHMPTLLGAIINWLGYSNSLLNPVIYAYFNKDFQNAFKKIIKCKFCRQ

human 5-HT1D receptor [2] = molecular target: T2, human 5-HT1D receptor (Homo sapiens, UniProt P28221); assay: cAMP accumulation (LANCE Ultra TR-FRET) in HEK293T cells, WT 5-HT1D; type: cell-based; conditions: for EC50: cAMP accumulation, HEKt cells, mean ± SD; for Emax: HEK-293T
T2 construct: host or cells: HEK293T
T2 sequence (P28221 whole entry): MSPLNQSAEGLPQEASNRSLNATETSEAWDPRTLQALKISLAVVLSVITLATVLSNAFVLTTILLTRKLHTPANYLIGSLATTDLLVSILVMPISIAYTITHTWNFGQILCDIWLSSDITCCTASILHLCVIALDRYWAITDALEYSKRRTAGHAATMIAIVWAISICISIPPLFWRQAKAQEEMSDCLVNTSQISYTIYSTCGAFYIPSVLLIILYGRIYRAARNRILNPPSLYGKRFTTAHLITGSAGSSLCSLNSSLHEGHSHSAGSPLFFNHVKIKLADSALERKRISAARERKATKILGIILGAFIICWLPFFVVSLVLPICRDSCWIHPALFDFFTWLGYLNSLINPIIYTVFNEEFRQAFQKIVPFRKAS
Method: (§1) Briefly, cells transfected with the desired receptor construct and compounds were incubated in the dark for 90 min at 37 °C. After incubation, cAMP detection reagents were added, and TR-FRET was used to quantify the cAMP produced.
(§2) The functional activity of compounds was determined by stimulating cells expressing the desired receptor with FSK and test compound in parallel with 12 known concentrations of cAMP. The known concentrations of cAMP were used to create a standard curve for each experiment that was used to interpolate the unknown values of cAMP in wells with test compounds. […] The EC50 and EMAX values were determined using the “dose response – log[agonist] vs response (three parameter)” nonlinear regression model in Prism and transformed to pEC50 values, reported as mean ± SD.
(§3) Summary of functional assay conditions at various 5-HT1 receptor point mutation constructs.

human 5-HT1A receptor [3] = molecular target: T1, human 5-HT1A receptor; assay: cAMP accumulation (LANCE Ultra TR-FRET) in HEK293T cells, WT 5-HT1A; type: cell-based; conditions: for EC50: cAMP accumulation, HEKt cells, mean ± SD; for Emax: HEK-293T
Method: as §1, §2, §3

human 5-HT1F receptor = molecular target: T3, human 5-HT1F receptor (Homo sapiens, UniProt P30939); assay: Radioligand binding (saturation and competition), WT 5-HT1F
T3 construct: host or cells: HEK293T
T3 sequence (P30939 1-366): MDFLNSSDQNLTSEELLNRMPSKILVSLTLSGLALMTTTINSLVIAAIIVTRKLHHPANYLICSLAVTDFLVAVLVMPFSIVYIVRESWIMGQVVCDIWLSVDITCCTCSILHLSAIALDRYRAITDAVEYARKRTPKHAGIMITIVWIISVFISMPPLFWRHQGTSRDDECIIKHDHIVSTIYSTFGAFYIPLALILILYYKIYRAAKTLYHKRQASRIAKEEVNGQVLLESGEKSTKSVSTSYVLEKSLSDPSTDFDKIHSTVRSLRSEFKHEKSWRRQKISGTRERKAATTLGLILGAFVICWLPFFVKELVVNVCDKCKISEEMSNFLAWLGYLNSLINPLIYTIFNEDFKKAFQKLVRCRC

human 5-HT1B receptor [4] = molecular target: T4, human 5-HT1B receptor (Homo sapiens, UniProt P28222); assay: Radioligand binding (saturation and competition), WT 5-HT1B
T4 construct: host or cells: HEK293T
T4 sequence (P28222 whole entry): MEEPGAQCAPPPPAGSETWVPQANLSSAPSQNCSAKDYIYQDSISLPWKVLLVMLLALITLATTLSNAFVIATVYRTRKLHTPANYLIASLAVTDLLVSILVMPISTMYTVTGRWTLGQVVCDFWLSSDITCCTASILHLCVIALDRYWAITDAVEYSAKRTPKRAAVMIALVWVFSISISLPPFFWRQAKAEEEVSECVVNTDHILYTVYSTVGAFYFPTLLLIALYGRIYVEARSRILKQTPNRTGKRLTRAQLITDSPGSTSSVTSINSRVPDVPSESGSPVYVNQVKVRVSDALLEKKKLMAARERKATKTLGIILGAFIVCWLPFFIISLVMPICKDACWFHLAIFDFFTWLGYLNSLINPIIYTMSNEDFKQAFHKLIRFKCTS

human 5-HT1D receptor [5] = molecular target: T2, human 5-HT1D receptor; assay: Radioligand binding (saturation and competition), WT 5-HT1D
human 5-HT1B receptor [6] = molecular target: T4, human 5-HT1B receptor; assay: cAMP accumulation (LANCE Ultra TR-FRET) in HEK293T cells, WT 5-HT1B; type: cell-based; conditions: for EC50: cAMP accumulation, HEKt cells, mean ± SD; for Emax: HEK-293T
Method: as §1, §2, §3

[7] = read-out: 5-HT1D EMAX (%), WT receptor, normalized to basal (0%) and 10 μM 5-CT (100%)
[8] = WT receptor, normalized to basal (0%) and 10 μM 5-CT (100%)
[9] = read-out: 5-HT1A EMAX (%), WT receptor, normalized to basal (0%) and 10 μM 5-CT (100%)
[10] = Affinity (pKi ± SD) 5-HT1B, WT receptor, [^3H]5-CT competition, mean ± SD
[11] = Affinity (pKi ± SD) 5-HT1D, WT receptor, [^3H]5-CT competition, mean ± SD
[12] = read-out: 5-HT1B EMAX (%), WT receptor, normalized to basal (0%) and 10 μM 5-CT (100%)
[13] = Affinity (pKi ± SD) 5-HT1A, WT receptor, [^3H]5-CT competition, mean ± SD
[14] = WT receptor, [^3H]5-HT competition, mean ± SD, read-out: Affinity (pKi ± SD) 5-HT1F (converted)
[15] = WT receptor, read-out: 5-HT1D pEC50 (converted)
[16] = read-out: Affinity (pKi ± SD) 5-HT1D (converted)
[17] = read-out: Affinity (pKi ± SD) 5-HT1A (converted)
[18] = WT receptor, read-out: 5-HT1A pEC50 (converted)
[19] = read-out: Affinity (pKi ± SD) 5-HT1B (converted)
[20] = WT receptor, read-out: 5-HT1B pEC50 (converted)

Row | Compound | EC50 (human 5-HT1D receptor [2]; 5-HT1D pEC50, WT receptor) | Emax (human 5-HT1D receptor [2]; [7]) | EC50 (human 5-HT1A receptor [3]; 5-HT1A pEC50, WT receptor) | Emax (human 5-HT1A receptor [3]; [9]) | Ki (human 5-HT1F receptor) | Ki (human 5-HT1B receptor [4]; [10]) | Ki (human 5-HT1D receptor [5]; [11]) | EC50 (human 5-HT1B receptor [6]; 5-HT1B pEC50, WT receptor) | Emax (human 5-HT1B receptor [6]; [12]) | 5-HT1B EMAX (%) (human 5-HT1B receptor [6]; [8]) | Ki (human 5-HT1A receptor [1]; [13]) | Emax (human 5-HT1A receptor [3]; read-out: 5-HT1A EMAX (%)) | Ki (human 5-HT1D receptor [5]; [16]) | further results
1 | CN(C)[C@H]1CCc2c(cccc2-c2ccccc2)C1 [(S)-5-PAT] | 0.741 nM | > 90% | 70.8 nM | > 90% | 6760 nM | 10.2 nM | 0.661 nM | 14.5 nM | ~30% | 28 ± 3% |  |  |  | Affinity (pKi ± SD) 5-HT1A (human 5-HT1A receptor [1]; WT receptor, [^3H]5-CT competition, mean ± SD): 8.20 ± 0.04; 5-HT1D EMAX (%) (human 5-HT1D receptor [2]; [8]): 97 ± 2%; more potent at the 5-HT1D receptor compared to 5-HT1A and 5-HT1B receptors (human 5-HT1D receptor [2]; cAMP potency ratio): over 10 fold; 5-HT1A EMAX (%) (human 5-HT1A receptor [3]; [8]): 100 ± 2%
2 | CCCN(CCC)[C@H]1CCc2cccc(O)c2C1 [(S)-8-OH-DPAT, 8-hydroxy-N,N-dipropyl-1,2,3,4-tetrahydronaphthalen-2-amine, reference compound] |  | 94 ± 2% |  |  | > 10000 nM |  |  |  | 85 ± 3% |  |  |  |  | 5-HT1A EMAX (%) (human 5-HT1A receptor [3]; [8]): 70 ± 3%
3 | CN(C)[C@H]1CCc2c(cccc2-c2ccccc2Cl)C1 [(S)-CPT] | 2.24 nM | 101 ± 1% | 43.7 nM | 91 ± 2% | > 10000 nM | 0.891 nM | 0.447 nM | 0.347 nM | > 90% | 100 ± 1% | 5.75 nM |  |  | 
4 | CCCN(CCC)[C@H]1CCc2c(cccc2-c2ccccc2Cl)C1 [(S)-DCPT] | 2.4 nM | 101 ± 2% | 26.3 nM | 92 ± 4% | 7590 nM | 0.398 nM | 0.562 nM | 0.288 nM | > 90% | 103 ± 2% | 1.41 nM |  |  | 
5 | CCCN(CCC)[C@H]1CCc2c(cccc2-c2ccccc2F)C1 [(S)-DFPT] | 1.17 nM | 99 ± 2% | 12.6 nM | 100 ± 2% | 8510 nM | 2 nM | 0.155 nM | 1.23 nM | > 90% | 100 ± 2% | 1.45 nM |  |  | 
6 | O=C1CCc2ccc(OCCCCN3CCN(c4cccc(Cl)c4Cl)CC3)cc2N1 [Aripiprazole, aripiprazole, reference compound] |  | 96 ± 1% |  | 96 ± 2% |  |  |  |  | 99 ± 3% |  |  |  |  | Ki (human 5-HT1F receptor; [14]): 7240 nM
7 | O=C1CC2(CCCC2)CC(=O)N1CCCCN1CCN(c2ncccn2)CC1 [Buspirone, buspirone, reference compound] |  |  |  |  |  |  |  |  |  |  |  | 75 ± 1% | 617 nM | Emax (human 5-HT1D receptor [2]; read-out: 5-HT1D EMAX (%)): 50 ± 3%; EC50 (human 5-HT1D receptor [2]; [15]): > 10000 nM; Ki (human 5-HT1F receptor; [14]): > 10000 nM; Emax (human 5-HT1B receptor [6]; read-out: 5-HT1B EMAX (%)): 45 ± 3%
8 | CN(C)[C@H]1CCc2c(cccc2-c2cccc3c2oc2ccccc23)C1 [DBZ, (S)-5-(Dibenzo[b,d]furan-4-yl)-N,N-dimethyl-1,2,3,4-tetrahydronaphthalen-2-amine] |  |  |  |  |  |  |  |  |  |  |  | 93 ± 4% | 4.79 nM | Ki (human 5-HT1A receptor [1]; [17]): 309 nM; Emax (human 5-HT1D receptor [2]; read-out: 5-HT1D EMAX (%)): 99 ± 2%; EC50 (human 5-HT1D receptor [2]; [15]): 4.37 nM; EC50 (human 5-HT1A receptor [3]; [18]): 813 nM; Ki (human 5-HT1B receptor [4]; [19]): 69.2 nM; Emax (human 5-HT1B receptor [6]; read-out: 5-HT1B EMAX (%)): 93 ± 2%; EC50 (human 5-HT1B receptor [6]; [20]): 64.6 nM
9 | CN(C)[C@H]1CCc2c(cccc2-c2c(F)cccc2F)C1 [Di-FPT, (S)-5-(2,6-Difluorophenyl)-N,N-dimethyl-1,2,3,4-tetrahydronaphthalen-2-amine] | 1.66 nM | 100 ± 1% | 1.74 nM | 98 ± 2% |  | 1.62 nM | 1.41 nM | 2.09 nM | 100 ± 1% |  | 1.7 nM |  |  | 
10 | Fc1ccccc1-c1cccc2c1CC[C@H](N1CCNCC1)C2 [FPIP, (S)-1-(5-(2-Fluorophenyl)-1,2,3,4-tetrahydronaphthalen-2-yl)piperazine] |  |  |  |  |  |  |  |  |  |  |  | 95 ± 2% | 87.1 nM | Ki (human 5-HT1A receptor [1]; [17]): 0.977 nM; Emax (human 5-HT1D receptor [2]; read-out: 5-HT1D EMAX (%)): 98 ± 2%; EC50 (human 5-HT1D receptor [2]; [15]): 148 nM; EC50 (human 5-HT1A receptor [3]; [18]): 1.2 nM; selectivity over 5-HT1B and 5-HT1D receptors (human 5-HT1A receptor [3]; full efficacy 5-HT1A agonist): 100 fold; Ki (human 5-HT1B receptor [4]; [19]): 107 nM; Emax (human 5-HT1B receptor [6]; read-out: 5-HT1B EMAX (%)): 99 ± 3%; EC50 (human 5-HT1B receptor [6]; [20]): 126 nM
11 | CN1CCC(c2c[nH]c3ccc(NC(=O)c4ccc(F)cc4)cc23)CC1 [LY334370, reference compound] |  |  |  |  |  |  |  |  |  |  |  |  | 2040 nM | Ki (human 5-HT1A receptor [1]; [17]): 501 nM; Ki (human 5-HT1F receptor; [14]): 8.32 nM
12 | Cc1ccc(CNCC2(F)CCN(C(=O)c3ccc(F)c(Cl)c3)CC2)nc1 [NLX-112, reference compound] |  |  |  |  | > 10000 nM | > 10000 nM | > 10000 nM |  |  |  |  | 100 ± 3% |  | EC50 (human 5-HT1D receptor [2]; read-out: 5-HT1D pEC50 (converted), WT receptor): > 10000 nM; EC50 (human 5-HT1B receptor [6]; read-out: 5-HT1B pEC50 (converted), WT receptor): > 10000 nM
